{"source": "ChEMBL document CHEMBL4011615", "about": "“Past, Current, and Future Developments of Therapeutic Agents for Treatment of Chronic Hepatitis B Virus Infection” (J Med Chem, 2017)", "key": {"[1]": {"test_system": "Hepatitis B virus", "experiment": "Antiviral activity against HBV infected in human HepAD38 cells", "type": "functional, cell-based"}, "[2]": {"test_system": "Hepatitis B virus", "experiment": "Antiviral activity against HBV infected in human HepG2(2.2.15) cells assessed as inhibition of extracellular viral DNA level", "type": "functional, cell-based"}, "[3]": {"test_system": "Hepatitis B virus", "experiment": "Antiviral activity against HBV infected in human HepaRG cells assessed as reduction in viral infection after 16 hrs"}, "[4]": {"test_system": "Hepatitis B virus", "experiment": "Antiviral activity against HBV infected in human HepG2(2.2.15) cells assessed as reduction in intracellular viral capsid level at antiviral IC50 by immunoblot method", "type": "functional"}, "[5]": {"test_system": "Hepatitis B virus", "experiment": "Antiviral activity against HBV infected in human HepG2(2.2.15) cells assessed as inhibition of viral DNA level after 24 hrs by RT-PCR method", "type": "functional, cell-based", "conditions": "HepG2 2.2.15, 24 h"}, "[6]": {"experiment": "Cytotoxicity against human HepG2(2.2.15) cells after 24 hrs by MTS assay", "type": "cell-based"}, "[7]": {"test_system": "Hepatitis B virus", "experiment": "Antiviral activity against HBV infected in human HepG2(2.2.15) cells assessed as inhibition of viral DNA level after 8 days by RT-PCR method", "type": "functional, cell-based", "conditions": "HepG2 2.2.15, 192 h"}, "[8]": {"test_system": "Hepatitis B virus", "experiment": "Antiviral activity against HBV infected in human HepG2.N9 cells assessed as reduction in HBeAg level measured on day 8 post infection", "type": "functional, cell-based", "conditions": "192 h"}, "[9]": {"test_system": "Hepatitis B virus", "experiment": "Antiviral activity against HBV infected in human HepG2(2.2.15) cells assessed as inhibition of viral DNA level", "type": "functional, cell-based"}, "[10]": {"test_system": "Hepatitis B virus", "experiment": "Antiviral activity against HBV infected in human HuS-E/2 cells assessed as inhibition of viral mRNA level at 50 uM treated for 20 hrs measured after 7 days by RT-PCR method relative to control", "type": "functional"}, "[11]": {"test_system": "Hepatitis B virus", "experiment": "Antiviral activity against HBV infected in human HepG2(2.2.15) cells assessed as inhibition of viral DNA level after 6 days by Southern blot analysis", "type": "functional, cell-based", "conditions": "HepG2 2.2.15, 144 h"}, "[12]": {"experiment": "Cytotoxicity against human HepG2(2.2.15) cells assessed as reduction in cell viability after 3 days by methylene blue assay", "type": "cell-based"}, "[13]": {"test_system": "Hepatitis B virus", "experiment": "Inhibition of HBV C150-Bodipy labeled capsid (1 to 150 residues) C49A/C61A/C107A mutant expressed in Escherichia coli assessed as reduction in NaCl-induced capsid assembly at 10 uM preincubated for 15 mins followed by NaCl addition measured after 1 hr by fluorescence quenching assay relative to control"}, "[14]": {"test_system": "Hepatitis B virus", "experiment": "Antiviral activity against HBV infected in human HepG2(2.2.15) cells assessed as inhibition of viral RNA level", "type": "functional, cell-based"}}, "data": [{"smiles": "COc1ccccc1/C(Br)=C(/NC(=O)c1ccc([N+](=O)[O-])cc1)C(=O)N1CCCCC1", "values": [{"measurement": "IC50", "setting": "[1]", "result": 130, "unit": "nM"}]}, {"smiles": "O=C(Nc1ncc([N+](=O)[O-])s1)c1ccccc1O", "note": "[TIZOXANIDE]", "values": [{"measurement": "IC50", "setting": "[2]", "result": 150, "unit": "nM"}]}, {"smiles": "C/C=C/C[C@@H](C)[C@@H](O)[C@H]1C(=O)N[C@@H](CC)C(=O)N(C)CC(=O)N(C)[C@@H](CC(C)C)C(=O)N[C@@H](C(C)C)C(=O)N(C)[C@@H](CC(C)C)C(=O)N[C@@H](C)C(=O)N[C@H](C)C(=O)N(C)[C@@H](CC(C)C)C(=O)N(C)[C@@H](CC(C)C)C(=O)N(C)[C@@H](C(C)C)C(=O)N1C", "note": "[CYCLOSPORINE]", "values": [{"measurement": "IC50", "setting": "[3]", "result": "< 200", "unit": "nM"}]}, {"smiles": "O=C(CNC(=O)c1ccc(F)cc1)Nc1ccc(Cl)nc1Cl", "values": [{"measurement": "inhibition (INH)", "setting": "[4]", "result": 51, "unit": "%"}, {"measurement": "IC50", "setting": "[5]", "result": 880, "unit": "nM"}, {"measurement": "CC50 at 24 h", "setting": "[6]", "result": 144, "unit": "µM"}]}, {"smiles": "CC(=O)Nc1ccc(-c2cc(C)c(=O)n(Cc3ccc(Cl)cc3)n2)cc1", "values": [{"measurement": "IC50", "setting": "[7]", "result": 1500, "unit": "nM"}]}, {"smiles": "CCCCC1=NC2(CCCC2)C(=O)N1Cc1ccc(-c2ccccc2-c2nnn[nH]2)cc1", "note": "[IRBESARTAN]", "values": [{"measurement": "IC50", "setting": "[8]", "result": 3.3, "unit": "µM"}]}, {"smiles": "CCOC(=O)C1=C(C)NC(c2c(F)cc(F)cc2F)=N[C@H]1c1ccc(F)cc1Cl", "values": [{"measurement": "IC50", "setting": "[9]", "result": 280, "unit": "nM"}]}, {"smiles": "CCOC(=O)C1=C(CN2CCOCC2)NC(c2nccs2)=NC1c1ccc(F)cc1Br", "note": "(configuration not stated)", "values": [{"measurement": "IC50", "setting": "[9]", "result": 12, "unit": "nM"}]}, {"smiles": "CCOC(=O)C1=C(C)NC(c2ncccc2F)=N[C@@H]1c1ccc(F)cc1Cl", "values": [{"measurement": "IC50", "setting": "[9]", "result": 150, "unit": "nM"}]}, {"smiles": "CCOC(=O)c1sc(-c2nc(C)cs2)nc1CC(C)C", "values": [{"measurement": "IC50", "setting": "[7]", "result": 140, "unit": "nM"}]}, {"smiles": "CC(=O)Oc1ccccc1C(=O)Nc1ncc([N+](=O)[O-])s1", "note": "[NITAZOXANIDE]", "values": [{"measurement": "IC50", "setting": "[2]", "result": 120, "unit": "nM"}]}, {"smiles": "O=C(O[C@@H]1Cc2c(O)cc(O)cc2O[C@@H]1c1cc(O)c(O)c(O)c1)c1cc(O)c(O)c(O)c1", "note": "[EPIGALOCATECHIN GALLATE]", "values": [{"measurement": "inhibition at 50 µM", "setting": "[10]", "result": "> 80", "unit": "%"}]}, {"smiles": "O=C1OCc2c1cc1ccc3c(c1c2-c1ccc2c(c1)OCO2)OCO3", "note": "[HELIOXANTHIN]", "values": [{"measurement": "IC50", "setting": "[11]", "result": 1000, "unit": "nM"}, {"measurement": "CC50 at 72 h", "setting": "[12]", "result": 6, "unit": "µM"}]}, {"smiles": "CC(=O)[C@]1(O)CC[C@@]2(O)[C@]1(C)[C@H](OC(=O)/C=C(\\C)C(C)C)C[C@@H]1[C@@]3(C)CC[C@H](O)CC3=CC[C@]12O", "note": "[CAUDATIN]", "values": [{"measurement": "IC50", "setting": "[9]", "result": 40600, "unit": "nM"}]}, {"smiles": "O=c1cc(-c2ccc(O)c(-c3c(O)cc4oc(-c5ccc(O)cc5)cc(=O)c4c3O)c2)oc2cc(O)cc(O)c12", "note": "[ROBUSTAFLAVONE]", "values": [{"measurement": "IC50", "setting": "[9]", "result": 250, "unit": "nM"}]}, {"smiles": "O=C(Nc1ccc(F)c(Cl)c1)N1CCCN(c2c(Cl)cncc2Cl)CC1", "values": [{"measurement": "inhibition", "setting": "[13]", "result": "> 50", "unit": "%"}]}, {"smiles": "COC(=O)C1=C(CN2CCOCC2)NC(c2nccs2)=N[C@H]1c1ccc(F)cc1Br", "values": [{"measurement": "IC50", "setting": "[9]", "result": 11, "unit": "nM"}]}, {"smiles": "O=c1[nH][nH]c(=O)c2c(-c3ccc4c(c3)OCO4)c3c4c(ccc3cc12)OCO4", "values": [{"measurement": "CC50 at 72 h", "setting": "[12]", "result": 9, "unit": "µM"}]}, {"smiles": "CC(C)Cc1nc(-c2nccs2)sc1C(=O)NCc1ccc(F)cc1", "values": [{"measurement": "IC50", "setting": "[14]", "result": 1330, "unit": "nM"}]}]}
